Data from the supplement of paper PMC10307832.

Legend:
Experiment in all cases: relative viability (nuclei count vs DMSO), 5 days (fraction); higher = more cells survive
[1] = system: NCI-H2170
In short: (§1)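 Relative viability divides the nuclei count in treated wells by that in vehicle wells. Lung cancer cell lines were seeded in 1536-well plates, dosed by pin tool the next day, and fixed and stained after 5 days in one step with final 0.05% Triton X-100, 1% formaldehyde and 1 ug/ml Hoechst. Dosing was a single drug or a fixed anchor-drug dose plus five library-drug doses (not always all listed) in √10 steps, and values are medians of duplicate plates imaged at 4×.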

[2] = system: ABC-1
In short: as §1

[3] = system: NCI-H661
In short: as §1

[4] = system: EKVX
In short: as §1

[5] = system: COR-L23
In short: as §1

[6] = system: NCI-H2023
In short: as §1

[7] = system: LU99A
In short: as §1

[8] = system: NCI-H1650
In short: as §1

[9] = system: COR-L 105
In short: as §1

[10] = system: NCI-H3122
In short: as §1

[11] = system: HCC-366
In short: as §1

[12] = system: HARA
In short: as §1

[13] = system: 201T
In short: as §1

[14] = system: NCI-H2009
In short: as §1

[15] = system: NCI-H727
In short: as §1

[16] = system: NCI-H838
In short: as §1

[17] = system: NCI-H1437
In short: as §1

[18] = system: NCI-H1666
In short: as §1

[19] = system: PC-14
In short: as §1

[20] = system: BEN
In short: as §1

[21] = system: NCI-H441
In short: as §1

[22] = system: CAL-12T
In short: as §1

[23] = system: LK-2
In short: as §1

[24] = system: SW 900
In short: as §1

Clc1ccc(Nc2nnc(Cc3ccncc3)c3ccccc23)cc1 [Vatalanib] + Cc1nc(Nc2ncc(C(=O)Nc3c(C)cccc3Cl)s2)cc(N2CCN(CCO)CC2)n1 [Dasatinib] (partner 0.075 µM)
relative viability ([1]; first compound 0.04 µM): 0.521 | relative viability ([1]; first compound 0.1265 µM): 0.486 | relative viability ([1]; first compound 0.4 µM): 0.556 | relative viability ([1]; first compound 1.265 µM): 0.483 | relative viability ([1]; first compound 4 µM): 0.507 | relative viability ([2]; first compound 0.04 µM): 0.722 | relative viability ([2]; first compound 1.265 µM): 0.514 | relative viability ([2]; first compound 4 µM): 0.581 | relative viability ([3]; first compound 0.04 µM): 0.935 | relative viability ([3]; first compound 0.1265 µM): 0.854 | relative viability ([3]; first compound 0.4 µM): 1.06 | relative viability ([3]; first compound 1.265 µM): 0.853 | relative viability ([3]; first compound 4 µM): 0.804 | relative viability ([4]; first compound 0.04 µM): 0.651 | relative viability ([4]; first compound 0.1265 µM): 0.5 | relative viability ([4]; first compound 0.4 µM): 0.585 | relative viability ([4]; first compound 1.265 µM): 0.397 | relative viability ([4]; first compound 4 µM): 0.4 | relative viability ([5]; first compound 0.04 µM): 0.502 | relative viability ([5]; first compound 0.1265 µM): 0.502 | relative viability ([5]; first compound 0.4 µM): 0.651 | relative viability ([5]; first compound 1.265 µM): 0.414 | relative viability ([5]; first compound 4 µM): 0.519 | relative viability ([6]; first compound 0.04 µM): 0.671 | relative viability ([6]; first compound 0.1265 µM): 0.563 | relative viability ([6]; first compound 0.4 µM): 0.653 | relative viability ([6]; first compound 1.265 µM): 0.484 | relative viability ([6]; first compound 4 µM): 0.482 | relative viability ([7]; first compound 0.04 µM): 0.499 | relative viability ([7]; first compound 0.1265 µM): 0.58 | relative viability ([7]; first compound 0.4 µM): 0.685 | relative viability ([7]; first compound 1.265 µM): 0.44 | relative viability ([7]; first compound 4 µM): 0.583 | relative viability ([8]; first compound 0.04 µM): 0.346 | relative viability ([8]; first compound 0.1265 µM): 0.275 | relative viability ([8]; first compound 0.4 µM): 0.354 | relative viability ([8]; first compound 1.265 µM): 0.217 | relative viability ([8]; first compound 4 µM): 0.289 | relative viability ([9]; first compound 0.04 µM): 0.294 | relative viability ([9]; first compound 0.1265 µM): 0.32 | relative viability ([9]; first compound 0.4 µM): 0.404 | relative viability ([9]; first compound 1.265 µM): 0.316 | relative viability ([9]; first compound 4 µM): 0.326 | relative viability ([10]; first compound 0.04 µM): 0.986 | relative viability ([10]; first compound 0.1265 µM): 0.838 | relative viability ([10]; first compound 0.4 µM): 0.795 | relative viability ([10]; first compound 1.265 µM): 0.768 | relative viability ([10]; first compound 4 µM): 0.787 | relative viability ([11]; first compound 0.04 µM): 0.829 | relative viability ([11]; first compound 0.1265 µM): 0.573 | relative viability ([11]; first compound 0.4 µM): 0.618 | relative viability ([11]; first compound 1.265 µM): 0.586 | relative viability ([11]; first compound 4 µM): 0.503 | relative viability ([12]; first compound 0.04 µM): 0.265 | relative viability ([12]; first compound 0.1265 µM): 0.214 | relative viability ([12]; first compound 0.4 µM): 0.284 | relative viability ([12]; first compound 1.265 µM): 0.212 | relative viability ([12]; first compound 4 µM): 0.248 | relative viability ([13]; first compound 0.04 µM): 0.576 | relative viability ([13]; first compound 0.1265 µM): 0.564 | relative viability ([13]; first compound 0.4 µM): 0.594 | relative viability ([13]; first compound 1.265 µM): 0.555 | relative viability ([13]; first compound 4 µM): 0.579 | relative viability ([14]; first compound 0.04 µM): 0.288 | relative viability ([14]; first compound 0.1265 µM): 0.256 | relative viability ([14]; first compound 0.4 µM): 0.35 | relative viability ([14]; first compound 1.265 µM): 0.303 | relative viability ([14]; first compound 4 µM): 0.283 | relative viability ([15]; first compound 0.04 µM): 0.339 | relative viability ([15]; first compound 0.1265 µM): 0.37 | relative viability ([15]; first compound 0.4 µM): 0.326 | relative viability ([15]; first compound 1.265 µM): 0.41 | relative viability ([15]; first compound 4 µM): 0.425 | relative viability ([16]; first compound 0.04 µM): 0.325 | relative viability ([16]; first compound 0.1265 µM): 0.277 | relative viability ([16]; first compound 0.4 µM): 0.292 | relative viability ([16]; first compound 1.265 µM): 0.275 | relative viability ([16]; first compound 4 µM): 0.273 | relative viability ([17]; first compound 0.04 µM): 0.399 | relative viability ([17]; first compound 0.1265 µM): 0.41 | relative viability ([17]; first compound 0.4 µM): 0.286 | relative viability ([17]; first compound 1.265 µM): 0.349 | relative viability ([17]; first compound 4 µM): 0.417 | relative viability ([18]; first compound 0.04 µM): 0.805 | relative viability ([18]; first compound 0.1265 µM): 0.714 | relative viability ([18]; first compound 0.4 µM): 0.883 | relative viability ([18]; first compound 1.265 µM): 0.791 | relative viability ([18]; first compound 4 µM): 0.758 | relative viability ([19]; first compound 0.04 µM): 0.318 | relative viability ([19]; first compound 0.1265 µM): 0.248 | relative viability ([19]; first compound 0.4 µM): 0.34 | relative viability ([19]; first compound 1.265 µM): 0.244 | relative viability ([19]; first compound 4 µM): 0.245 | relative viability ([20]; first compound 0.04 µM): 0.308 | relative viability ([20]; first compound 0.1265 µM): 0.271 | relative viability ([20]; first compound 0.4 µM): 0.315 | relative viability ([20]; first compound 1.265 µM): 0.29 | relative viability ([20]; first compound 4 µM): 0.342 | relative viability ([21]; first compound 0.04 µM): 0.634 | relative viability ([21]; first compound 0.1265 µM): 0.627 | relative viability ([21]; first compound 0.4 µM): 0.573 | relative viability ([21]; first compound 1.265 µM): 0.605 | relative viability ([21]; first compound 4 µM): 0.551 | relative viability ([22]; first compound 0.04 µM): 0.526 | relative viability ([22]; first compound 0.1265 µM): 0.351 | relative viability ([22]; first compound 0.4 µM): 0.464 | relative viability ([22]; first compound 1.265 µM): 0.28 | relative viability ([22]; first compound 4 µM): 0.374 | relative viability ([23]; first compound 0.04 µM): 0.322 | relative viability ([23]; first compound 0.1265 µM): 0.219 | relative viability ([23]; first compound 0.4 µM): 0.244 | relative viability ([23]; first compound 1.265 µM): 0.27 | relative viability ([23]; first compound 4 µM): 0.294 | relative viability ([24]; first compound 0.1265 µM): 0.535 | relative viability ([24]; first compound 0.4 µM): 0.599 | relative viability ([24]; first compound 1.265 µM): 0.474 | relative viability ([24]; first compound 4 µM): 0.417
